Activity calls are given as the source filed them. The rule behind the calls is not given here.
Tests used:
[1] = tested on: Mus musculus; test: Inhibition of morphine sulfate-induced analgesic activity in sc dosed Swiss albino mouse measured 30 mins post morphine sulfate challenge by mouse tail-flick test; format: functional
[2] = tested on: Mus musculus; test: Analgesic activity in Swiss albino mouse at 5 to 20 mg/kg administered intramuscularly by mouse tail-flick test; format: functional, organism-based
[3] = tested on: Mus musculus; test: Inhibition of morphine sulfate-induced analgesic activity in Swiss albino mouse at 20 mg/kg administered intramuscularly measured 30 mins post morphine sulfate challenge by mouse tail-flick test; format: functional, organism-based; parameters: dose 20 mg/kg
[4] = Solubility of the compound in water; format: physicochemical; conditions: buffer
[5] = tested on: Mus musculus; test: Inhibition of morphine sulfate-induced analgesic activity in Swiss albino mouse at 20 mg/kg administered intramuscularly measured 8 hrs post morphine sulfate challenge by mouse tail-flick test; format: functional; conditions: route intramuscular
[6] = tested on: Mus musculus; test: Analgesic activity in Swiss albino mouse at 20 mg/kg, sc by mouse tail-flick test; format: functional, organism-based; parameters: dose 20 mg/kg
[7] = tested on: Mus musculus; test: Inhibition of morphine sulfate-induced analgesic activity in Swiss albino mouse at 20 mg/kg, sc measured 24 hrs post morphine sulfate challenge by mouse tail-flick test; format: functional; conditions: route subcutaneous
[8] = tested on: Mus musculus; test: Inhibition of morphine sulfate-induced analgesic activity in Swiss albino mouse at 20 mg/kg, sc measured 48 hrs post morphine sulfate challenge by mouse tail-flick test relative to naloxone hydrochloride; format: functional, organism-based; parameters: dose 20 mg/kg

Structure (SMILES) | AD50 [1] [mg/kg] | Activity [2] | Activity [3] | solubility [4] | Imax [5] [%] | Activity [6] | Imax [7] [%] | inhibition [8]
C[C@@H]1C2Cc3ccc([N+](=O)[O-])cc3[C@@]1(C)CCN2CC1CC1 | 9.6 |  |  |  |  |  |  | 
CN(C)C(=[NH2+])Cc1ccccc1.CN(C)C1=NC2c3ccccc3C(=[N+]([O-])[O-])C(C1c1ccccc1)C2[N+](=O)[O-] (centres undefined) |  | inactive | inactive | Insoluble |  |  |  | 
CN(C)C(=[NH2+])Cc1ccccc1.CN(C)C1=NC2C(=[N+]([O-])[O-])c3ccc([N+](=O)[O-])cc3C(C1c1ccccc1)C2[N+](=O)[O-] (centres undefined) |  | inactive |  | Insoluble | 50 |  |  | 
CN(C)C(=[NH2+])Cc1ccccc1.CN(C)C1=NC2c3cc([N+](=O)[O-])ccc3C(=[N+]([O-])[O-])C(C1c1ccccc1)C2[N+](=O)[O-] (centres undefined) |  | inactive | inactive | Insoluble |  |  |  | 
CN(C)C(=[NH2+])Cc1ccccc1.CN(C)C1=NC2C(=[N+]([O-])[O-])c3c(cccc3[N+](=O)[O-])C(C1c1ccccc1)C2[N+](=O)[O-] (centres undefined) |  |  |  | Insoluble |  | inactive | 50 | Active

— ChEMBL document CHEMBL3244242, “3-Benzazocine amidinium nitronates. An unusual type of opiate antagonist” (J Med Chem, 1978)
